# Reference: PubChem BioAssay AID651987 (The Scripps Research Institute Molecular Screening Center, 2013)
# Activity calls are given as the source filed them.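 How the source made its calls: active means reversible inhibitor in any panel, blocking the enzyme before filtration but under 50% inhibition after two or more filtrations; inactive means irreversible inhibitor in every panel.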
# Tests used:
# [1] = biological target: Acyl-protein thioesterase 1 (Homo sapiens) (UniProt O75608); assay: reversibility of LYPLA1/LYPLA2 inhibition, late-stage follow-up, mechanism study, cell lysate, gel-based ABPP, fluorescence, gel filtration, HEK293T proteome (AID 651987); conditions: HEK293T soluble proteome
# Acyl-protein thioesterase 1 (Homo sapiens), sequence (O75608 whole entry, looked up): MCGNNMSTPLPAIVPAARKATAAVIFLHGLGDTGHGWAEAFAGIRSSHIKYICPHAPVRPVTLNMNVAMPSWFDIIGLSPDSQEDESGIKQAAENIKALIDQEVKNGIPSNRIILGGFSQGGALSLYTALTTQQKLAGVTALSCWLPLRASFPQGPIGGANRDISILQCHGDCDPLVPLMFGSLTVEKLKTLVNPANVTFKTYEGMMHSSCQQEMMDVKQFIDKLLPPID
# [2] = biological target: Acyl-protein thioesterase 2 (Homo sapiens) (UniProt O95372); assay: as above; conditions: HEK293T soluble proteome
# Acyl-protein thioesterase 2 (Homo sapiens), sequence (O95372 whole entry, looked up): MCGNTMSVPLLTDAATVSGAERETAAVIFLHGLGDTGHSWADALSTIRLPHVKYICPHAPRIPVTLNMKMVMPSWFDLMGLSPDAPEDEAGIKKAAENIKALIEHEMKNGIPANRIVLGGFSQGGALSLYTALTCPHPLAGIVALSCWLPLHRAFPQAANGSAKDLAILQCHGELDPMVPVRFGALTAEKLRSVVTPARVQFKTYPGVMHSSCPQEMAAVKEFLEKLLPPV
# [3] = LYPLA1, after 1 gel filtration, stronger effect = higher value
# [4] = LYPLA1, after 2 gel filtrations, stronger effect = higher value
# [5] = LYPLA1, stronger effect = higher value, concentration not given here
# [6] = LYPLA2, after 1 gel filtration, stronger effect = higher value
# [7] = LYPLA2, after 2 gel filtrations, stronger effect = higher value
# [8] = LYPLA2, stronger effect = higher value, concentration not given here
smiles,measurement,setting,value
O=C(CN1CCN(C(=O)c2ccco2)CC1)Nc1cc(C(F)(F)F)ccc1Cl,inhibition,[1]; [3],75%
same,inhibition,[1]; [4],0%
same,inhibition,[1]; [5],100%
same,inhibition,[2]; [6],0%
same,inhibition,[2]; [7],0%
same,inhibition,[2]; [8],0% (inactive)
COc1ccc(N2CCN(C(=O)c3cc4c(s3)-c3ccccc3S(=O)(=O)C4)CC2)cc1,inhibition,[1]; [3],0%
same,inhibition,[1]; [4],0%
same,inhibition,[1]; [5],0% (inactive)
same,inhibition,[2]; [6],100%
same,inhibition,[2]; [7],0%
same,inhibition,[2]; [8],100%
O=C(N1CCCCC1)n1ccnn1,inhibition,[1]; [3],100%
same,inhibition,"[1]; LYPLA1, after 3 gel filtrations, stronger effect = higher value",100%
same,inhibition,[1]; [5],100% (inactive)
same,inhibition,[2]; [6],100%
same,inhibition,"[2]; LYPLA2, after 3 gel filtrations, stronger effect = higher value",100%
same,inhibition,[2]; [8],100% (inactive)
